Source: patent publication EP1463487B1, “LIPOSOMAL DELIVERY OF VITAMIN E BASED COMPOUNDS” (RESEARCH DEVELOPMENT FOUNDATION, priority 2001, dated 2003)

Columns and labels:
66 cl.4-GFP cells [1] = test: Fluorescent lung micrometastases of 66 cl.4-GFP tumors in Balb/c mice; assay type: in vivo; conditions: for Inhibition (%) Lung Metastases: Liposomal; for numbers of micrometastases (± S. E.): α-TEA EtOH/peanut oil by gavage 5 mg/day
Text: (§1) Metastastic lesions in the five lung lobes were counted visually at time of sacrifice. Fluorescent green micro-metastatic cancer cell colonies in the left lung lobe and lymph nodes were counted using a Nikon fluorescence microscope (TE-200) with a 20 x objective (200 x magnification) and Image-Pro Plus (version 4.1; Media Cybernetics, Silver Spring, MD) software associated with the microscope. Fluorescent lesions were separated into three size grouping: <5 µm , 5-10 µm and >10 µm.
(§2) At sacrifice, the left lung lobe of each mouse of flash frozen and saves for detection of GFP expressing micrometatstic lesions via fluorescent microscopy.

[2] = system: proliferation biomarker KI-67; test: KI-67 immunohistochemistry of tumor sections (cell proliferation); assay type: in vivo, Balb/c mice; conditions: transplantable syngeneic mouse mammary cancer model, in comparison to controls
66 cl.4-GFP cells [3] = test: Fluorescent lymph node micrometastases of 66 cl.4-GFP tumors in Balb/c mice; assay type: in vivo
Text: as §1, §2

66 cl.4-GFP cells [4] = test: Visible lung metastases of 66 cl.4-GFP tumors in Balb/c mice; assay type: in vivo; conditions: daily aerosol for 17 days; counted visually at sacrifice
Text: as §1

[5] = Aerosol, in nebulizer per mouse: α-TEA 5 mg/d, 9NC 2 µg/d, combination 5 mg+2µg/d

SMILES: Cc1c(C)c2c(c(C)c1OCC(=O)O)CC[C@@](C)(CCC[C@H](C)CCC[C@H](C)CCCC(C)C)O2 [α-TEA, 2,5,7,8-tetramethyl-(2R-(4R,8R,12-trimethyltridecyl)chroman-6-yloxy) acetic acid]
- Inhibition (%) Metastases Lung (66 cl.4-GFP cells [1]; [5]): 71%
- Inhibition (%) Lung Metastases (number of lung tumor micrometastases reduced) (66 cl.4-GFP cells [1]; EtOH/P Oil, Gavage, 5 mg/d): 62%
- Inhibition (%) Lung Metastases (66 cl.4-GFP cells [1]; Aerosol, 5 mg/d, in comparison to aerosol control): 81%
- Inhibition (%) Lung Metastases (66 cl.4-GFP cells [1]; Gavage, 3 mg/2Xd): 59%
- micrometatstatic lung lesions (66 cl.4-GFP cells [1]; liposomal formulation via gavage, 6 mg compound per day, 21 days, left lung lobe): 21.5 /lung
- mean number of micrometastases (± S. E.) (66 cl.4-GFP cells [1]; liposomal α-TEA/aerosol, left lung lobe, N= 8): 11.4 ± 3.5
- numbers of micrometastases (± S. E.) (66 cl.4-GFP cells [1]; size 5-10 µm): 11.3± 1.8
- numbers of micrometastases (± S. E.) (66 cl.4-GFP cells [1]; size < 5 µm): 6.8±1.5
- numbers of micrometastases (± S. E.) (66 cl.4-GFP cells [1]; size >10 µm): 3.1±1.2
- mean values of the proliferation biomarker KI-67 reduced [2]: 56%
- Inhibition (%) Metastases Lymphnode (66 cl.4-GFP cells [3]; [5]): 94%
- Inhibition (%) Metastases Lymphnode (66 cl.4-GFP cells [3]; Liposomal, Aerosol, 5 mg/d): 94%
- Inhibition (%) Metastases Lymphnode (66 cl.4-GFP cells [3]; Liposomal, Gavage, 3 mg/2Xd): 56%
- average micrometastatic lesions in lymph nodes (66 cl.4-GFP cells [3]; liposome via gavage, 6 mg compound per day, 21 days): 3.1 ±0.8
- No. Visible Lung Tumor Foci/Animal (66 cl.4-GFP cells [4]): No visible tumors were seen
